Measurements from patent US11013740B2, “Histone deacetylase 6 selective inhibitors for the treatment of cisplatin-induced peripheral neuropathy” (REGENACY PHARMACEUTICALS, LLC, priority 2015, dated 2021).

Assays:
[1] = test system: cisplatin-induced numbness; assay: Adhesive removal test (ART) for numbness; assay type: in vivo, mice; conditions: treatment starting after two rounds of cisplatin; tested in week 5
Description: To quantify signs of cisplatin-induced pain, the von Frey test was used (see below) which measures the decrease in threshold to induce a withdrawal response to a mechanical stimulus (hyperalgesia, one of the characteristics of CIPN). To assess cisplatin-induced numbness, the adhesive removal test (ART) was used. The time it took for the mouse to have a behavioral response to the patch (i.e. shaking or attempted removal) was recorded as a measure of sensory deficit or numbness. To determine if behavioral changes were due to altered general activity or motor function, the locomotor activity (LMA) test and the rotarod test was used. For LMA mice were placed in an open-field testing cage and movement was measured for 5 minutes. For the rotarod, mice were trained for two days and then tested on the rotarod (with increasing speeds) for 5 minutes. Time on the rotarod was recorded. […] The time it took for the mouse to display a behavioral response to the patch (i.e. shaking or attempted removal) was recorded. […]

GFAP = GFAP immunofluorescence of lumbar spinal cord dorsal horn (astrocyte activation); assay type: in vivo, mice; conditions: two rounds of cisplatin, then 3 doses of 10 mg/kg
Text: For quantification of astrocyte and microglia activation, lumbar spinal cords were collected on day 22. This collection day was after completion of cisplatin treatment and 3 injections of compound 001. […] Spinal cords were processed and stained with antibodies specific for GFAP and Iba-1. Images were captured under blinded conditions from the lumbar dorsal horn using a Leica SPE confocal microscope (Leica Microsystems, Buffalo Grove, Ill.).
For assessing astrocyte activation, paraformaldehyde fixed frozen 6 μm sections of lumbar spinal cord (L1-L6) were incubated with an antibody against glial fibrillary acidic protein (GFAP) (Rabbit; Abcam, Cambridge, Mass.) followed by Alexa-594-goat anti-rabbit IgG (Life Technologies, Carlsbad, Calif.) as described (Zhang H, et al. Evidence that spinal astrocytes but not microglia contribute to the pathogenesis of Paclitaxel-induced painful neuropathy. J. Pain, 2012; 13(3):293-303). Images were captured using a Leica SPE confocal microscope (Leica Microsystems, Buffalo Grove, Ill.). GFAP staining intensity was quantified using Image J software for percent positive GFAP staining in which intensity thresholds were maintained between samples. All immunofluorescence analysis were done by an experimenter blinded to the treatment groups.

rat DRG neurons = assay: Mitochondrial movement in cultured DRG neurons; assay type: cell-based; conditions: 100 nM co-administered with cisplatin, 3 hours
Description: DRG neurons (Lonza) were cultured for 5-7 days before the mitochondrial transport assay. 24 hrs prior to chemotherapy treatment cells were infected with Bacmam 2.0, which labeled mitochondria with GFP. Cells were treated with cisplatin (20-80 μM)+/−compound 001 (100 nM) for 3 hours. Imaging was performed using Zeiss 3i system. Time lapse images were acquired every 2 seconds over the course of 2 min. Image analysis was performed using Fiji and Multiple Kymograph plugin.

[2] = test system: cisplatin-induced spontaneous pain; assay: Conditioned place preference test for spontaneous pain; assay type: in vivo, mice; conditions: cisplatin followed by two weeks of daily compound
Description: Spontaneous pain was tested using a conditioning paradigm with retigabine as the conditioned stimulus that was originally described in a rat model (Yang Q, et al. Persistent pain after spinal cord injury is maintained by primary afferent activity. The Journal of Neuroscience. 2014; 34(32):10765-9; Ahmed B, et al. Recent changes in practice of elective percutaneous coronary intervention for stable angina. Circ. Cardiovasc. Qual. Outcomes. 2011; 4(3):300-5.). Retigabine is a […] with a rapid onset of action but only brief duration (45-60 min). […] Mol. Pain. 2010; 6(49); Passmore G M, et al. KCNQ/M currents in sensory neurons: significance for pain therapy. The Journal of Neuroscience, 2003; 23(18):7227-36). Briefly, during pre-conditioning, mice were allowed to freely explore for 15 min the CPP apparatus. The CPP apparatus consisted of 2 chambers (18×20 cm, one dark, one white) connected by a 15 cm hallway (Stoelting, Wood Dale, Ill.). The time spent in the light chamber was recorded. During the conditioning phase, saline was injected intraperitoneally in the morning and the mice were then kept in the dark chamber for 20 min. Three hours later, the analgesic retigabine (#R-100, Alomone laboratory, Jerusalem, Israel) […] the mice were immediately placed in the light chamber for 20 min. Conditioning was repeated for four consecutive days. […]

[3] = test system: mitochondrial respiration in tibial nerves; assay: Mitochondrial bioenergetics analysis of tibial nerves (XF24); assay type: in vivo, mice
Description: Tibial nerves were collected on experimental day 30, when the mice have received 2 rounds of cisplatin treatment and 11 injections of compound 001. Tissues were placed into islet capture XF24 microplate (Seahorse Bioscience, North Billerica, Mass.) in XF media with the addition of 5.5 mM glucose, 0.5 mM sodium pyruvate and 1 mM glutamine. Oligomycin (12 μM), FCCP (Carbonyl cyanide 4-(trifluoromethoxy)phenylhydrazone, 20 μM), and Rotenone/Antimycin A (20 μM each) (Sigma-Aldrich, St. Louis, Mo.) were injected sequentially during the assay. An assay cycle with a combination of 3-min mix, 3-min wait, and 4-min measure was repeated 4 times for baseline rates and after each port injection. After the respiratory measures, tissues were harvested and the oxygen consumption rate (OCR) values were normalized to the total protein content of each well. Basal respiration, ATP-linked respiration, proton leak, and maximal respiratory capacity were determined as described previously (Brand M D, and Nicholls D G. Assessing mitochondrial dysfunction in cells. The Biochemical journal. 2011; 435(2):297-312; Ma J, et al. Heat shock protein 70 is necessary to improve mitochondrial bioenergetics and reverse diabetic sensory neuropathy following KU-32 therapy. The Journal of pharmacology and experimental therapeutics. 2014; 348(2):281-92). Briefly, the initial measurements provide a measure of the basal OCR in the absence of respiratory chain poisons. The amount of basal OCR that is coupled to ATP production was determined by addition of the ATP synthase inhibitor oligomycin, which decreased the basal OCR. […] Next, maximal respiratory capacity (MRC) was assessed by addition of the protonophore FCCP, which dissipates the mitochondrial membrane potential and promotes maximal OCR. Lastly, non-mitochondrial respiration was determined by the addition of rotenone and antimycin A, which inhibit the activities of mitochondrial respiratory chain complex I and complex III respectively.

[4] = 2 rounds of cisplatin and 11 injections of compound

O=C(NO)c1cnc(NC2(c3ccccc3)CCC(F)(F)CC2)nc1 [compound 001]
time to behavioral response to adhesive patch (numbness) [1]: normalized the response time in this test | GFAP expression in dorsal horn of spinal cord (GFAP): normalized GFAP expression to levels of saline-treated animals | percentage of moving mitochondria in axons (mitochondrial transport) (rat DRG neurons): prevented this cisplatin-induced decrease in mitochondrial transport | change in time spent in retigabine-paired light chamber (spontaneous pain) [2]: did not develop a preference for the retigabine-paired light chamber | mitochondrial respiration (basal, ATP-linked, proton leak, maximal) in tibial nerves [3, 4]: normalized all aspects of the cisplatin-induced decrease in mitochondrial respiration | non-mitochondrial respiration in tibial nerves [3, 4]: not altered | mitochondrial bioenergetics, compound alone ([3]; without cisplatin): did not have any effect on mitochondrial bioenergetics
